Laboratory results as given in patent US20160166631A1, “NUTRACEUTICAL COMBINATION FOR PREVENTION AND TREATMENT OF TYPE 2 DIABETES” (priority 2014, published 2016).

Tested on: Type 2 diabetes patients
Test: Clinical trials: DiabetainC co-administered with Metformin or other anti-diabetes medications (Hb A1c, fasting blood glucose)
Type: in vivo, human
Procedure: Clinical trials have shown that “DiabetainC” supplements in accordance with this disclosure, when administered to Type 2 diabetes patients, lowers Hb A1c by an average of 1.7% when co-administered with Metformin, as compared with a 1.2% lowering of Hb A1c when Metformin is used by itself. This is a significant improvement. A 0.5% to 1% lowering of Hb A1c correlates with a 20% reduction in morbidity.
Clinical trials have shown an advantageous decrease in fasting blood glucose (FBG) of 72 mg/dL when co-administered with Metformin, as compared with a lowering of 48 mg/dL when Metformin is administered alone. […] These improvements are significant, as every 15 mg/dL to 40 mg/dL decrease in FBG reduces diabetes related heart diseases up to 50%.

## CN(C)C(=N)N=C(N)N [Metformin]
Metformin administered alone
  lowering of fasting blood glucose (FBG): 48 mg/dL
Type 2 diabetes patients, Metformin used by itself
  lowering of Hb A1c: 1.2%
